Key:
[1] = molecular target: T1, human platelet PDE3 (Homo sapiens, UniProt Q14432); assay: hPDE3 assay ([3H]cAMP scintillation proximity assay); assay type: biochemical; conditions: human platelet PDE3, [3H]cAMP SPA, 30 min at room temperature
T1 construct: Human platelet PDE3 (partially purified from human platelets); from tissue; host or cells: human platelets

[2] = tested on: GTL16 cells; assay: GTL16 cell viability assay (CellTiter Glo); assay type: cell-based; conditions: Homo sapiens, GTL 16, GTL16 gastric cancer cells, 24 hours, triplicates, read-out: GTL-16 Proliferation IC50
Procedure: GTL16 cell line is derived from a gastric cancer patient. GTL16 expresses high level of c-Met receptor tyrosine kinase due to the gene amplification.
GTL16 cells were seeded in DMEM medium with 10% FBS and 1% Pene. & Strep. at 5000 cells/well/90 μL in 96 well plate and incubated overnight for attachment at 37° C. in 5% CO2 incubator. 10-fold serials dilutions of compounds were added to the cell as 10 μL/well. The final assay volume was 100 μl/well. The assay plates were incubated at 37° C. in 5% CO2 incubator for 24 hours. […] Briefly, the plates were cooled at room temperature for 10 mins and 100 μl of CellTiter Glo reagent was added into each well. Plates were shaken for 10 mins. The chemiluminescent light unit was read in Envision from Perkin Elmer. All the tests were run at triplicates. The IC50 was calculated using Spotfire software.

[3] = molecular target: c-MET receptor tyrosine kinase, GST-c-MET(969-1390) (Homo sapiens, UniProt P08581); assay: EPK c-MET profiling assay (LanthaScreen TR-FRET kinase assay); assay type: biochemical; conditions: 2 μM ATP, 0.3 nM enzyme, 60 minutes at room temperature; end point measurement, repeats can be about two times higher or lower; read-out: c-Met Biochem IC50
Procedure: The exemplified compounds of the present invention were assayed in an antibody based kinase phosphorylation assay as follows.
EPK c-MET Profiling Assay:
The EPK kinase assay for c-MET receptor tyrosine kinase was developed, using the purified recombinant GST-fusion protein, containing the cytoplasmic domain of the enzyme. GST-c-MET(969-1390) was purified by affinity chromatography.
The kinase assay is based on the LanthaScreen™ technology. LanthaScreen™ is the detection of Time-Resolved Fluorescence Resonance Energy Transfer (TR-FRET) using lanthanide chelates to measure interactions between various binding partners. In a TR-FRET kinase assay, a long-lifetime lanthanide donor species is conjugated to an antibody that specifically binds to a phosphorylated product of a kinase reaction that is labeled with a suitable acceptor fluorophore. This antibody-mediated interaction brings the lanthanide donor and the acceptor into proximity such that resonance energy transfer can take place, resulting in a detectable increase in the FRET signal.
The kinase reactions were performed in 384 well microtiter plates in a total reaction volume of 10.05 μL. The assay plates were prepared with 0.05 μL per well of test compound in the appropriate test concentration, as described under “preparation of compound dilutions”. The reactions were started by combining 5 μL of ATP solution with 5 μL of enzyme-substrate mix (consisting of kinase and substrate). The final concentrations in the kinase reactions were 25 mM Tris/HCl, 1 mM DTT, 0.025% Tween20, 10 μM sodium orthovanadate, 0.25% BSA, 0.5% DMSO, 10 mM MgCl2, 3 mM MnCl2, 2 μM ATP, 50 nM Fluorescein-PolyEAY, and 0.3 nM enzyme. The reactions were incubated for 60 minutes at room temperature and stopped by adding 5 μL of stop buffer (50 mM EDTA, 0.04% NP40, 20 mM Tris/HCl). Subsequently 5 μL of detection mix (50 mM Tris/HCl, 2 mM DTT, 0.05% Tween20, 20 μM sodium orthovanadate, 1% BSA, 1 nM Tb-PY20 antibody) were added to the stopped reactions. After 45 minutes incubation in dark at room temperature, the plates were measured in a Perkinelmer Envision fluorescence reader. The effect of compound on the enzymatic activity was in all assays obtained from the linear progress curves and normally determined from one reading (end point measurement).
These endpoint results should therefore only be seen as an indicator for the activity range, since repeated measurements can result in about two times higher or lower values.

c-MET receptor tyrosine kinase, GST-c-MET(969-1390), sequence (P08581 969-1390): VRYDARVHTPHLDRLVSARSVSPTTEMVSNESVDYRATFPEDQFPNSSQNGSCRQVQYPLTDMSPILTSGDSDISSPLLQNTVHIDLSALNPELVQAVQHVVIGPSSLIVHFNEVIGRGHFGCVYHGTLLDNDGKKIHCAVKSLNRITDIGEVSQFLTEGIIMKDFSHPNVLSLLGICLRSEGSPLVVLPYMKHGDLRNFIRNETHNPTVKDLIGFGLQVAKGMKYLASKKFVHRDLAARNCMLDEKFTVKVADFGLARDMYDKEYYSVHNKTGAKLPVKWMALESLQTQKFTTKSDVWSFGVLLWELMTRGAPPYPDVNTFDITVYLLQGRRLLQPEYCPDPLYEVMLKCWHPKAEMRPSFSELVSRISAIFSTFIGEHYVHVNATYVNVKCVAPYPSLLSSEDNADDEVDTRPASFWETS
T1 sequence (Q14432 whole entry): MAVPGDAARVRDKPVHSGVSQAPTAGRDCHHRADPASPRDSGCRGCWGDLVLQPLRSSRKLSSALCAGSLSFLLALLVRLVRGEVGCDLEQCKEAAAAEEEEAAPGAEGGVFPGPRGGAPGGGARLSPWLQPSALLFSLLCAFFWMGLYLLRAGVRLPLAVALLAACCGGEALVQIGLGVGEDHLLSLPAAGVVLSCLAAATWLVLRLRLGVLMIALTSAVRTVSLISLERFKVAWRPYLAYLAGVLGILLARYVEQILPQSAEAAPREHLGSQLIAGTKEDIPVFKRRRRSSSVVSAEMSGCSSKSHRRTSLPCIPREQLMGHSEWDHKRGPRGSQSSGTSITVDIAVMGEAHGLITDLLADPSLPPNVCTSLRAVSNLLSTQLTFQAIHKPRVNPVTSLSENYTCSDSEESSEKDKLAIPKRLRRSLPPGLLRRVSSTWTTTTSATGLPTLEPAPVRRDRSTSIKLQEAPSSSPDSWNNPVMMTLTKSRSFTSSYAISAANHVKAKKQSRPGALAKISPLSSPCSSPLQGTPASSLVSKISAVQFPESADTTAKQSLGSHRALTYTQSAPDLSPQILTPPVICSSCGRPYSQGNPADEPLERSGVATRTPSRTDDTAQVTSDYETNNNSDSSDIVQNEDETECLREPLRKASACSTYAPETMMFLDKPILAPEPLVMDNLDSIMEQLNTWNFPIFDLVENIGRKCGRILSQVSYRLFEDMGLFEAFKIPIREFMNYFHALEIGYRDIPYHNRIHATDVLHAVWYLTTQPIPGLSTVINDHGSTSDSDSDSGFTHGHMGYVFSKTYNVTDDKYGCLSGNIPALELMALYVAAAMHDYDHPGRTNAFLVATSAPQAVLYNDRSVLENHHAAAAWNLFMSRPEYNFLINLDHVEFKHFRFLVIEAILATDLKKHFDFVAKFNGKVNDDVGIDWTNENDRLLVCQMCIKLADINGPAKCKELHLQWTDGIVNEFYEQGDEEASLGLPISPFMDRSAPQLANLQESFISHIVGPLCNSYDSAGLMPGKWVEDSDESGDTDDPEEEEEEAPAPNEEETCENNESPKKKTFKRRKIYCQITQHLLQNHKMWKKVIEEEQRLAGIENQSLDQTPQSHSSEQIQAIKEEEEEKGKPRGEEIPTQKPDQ

C/C(=N\O)c1ccc2nnc([C@H](C)c3c(F)cc4ncc(-c5cnn(C)c5)cc4c3F)n2n1 [Example 21-(R), (R,E)-1-(3-(1-(5,7-difluoro-3-(1-methyl-1H-pyrazol-4-yl)quinolin-6-yl)ethyl)-[1,2,4]triazolo[4,3-b]pyridazin-6-yl)ethanone oxime]
IC50 [1]: 7000 nM | IC50 [2]: 30 nM | IC50 [3]: 47 nM

CO/N=C(\C)c1ccc2nnc([C@@H](C)c3ccc4ncc(-c5cnn(C)c5)cc4c3)n2n1 [Example 3-(S)]
IC50 [1]: 2000 nM | IC50 [2]: 1 nM | IC50 [3]: 5 nM

C/C(=N\O)c1ccc2nnc(Cc3c(F)cc4ncc(C5CCCCC5)cc4c3F)n2n1 [Example 26, (E)-1-(3-((3-Cyclohexyl-5,7-difluoroquinolin-6-yl)methyl)-[1,2,4]triazolo[4,3-b]pyridazin-6-yl)-ethanone oxime]
IC50 [1]: > 30000 nM | IC50 [2]: 93 nM | IC50 [3]: 15 nM

C/C(=N\OCC1CC1)c1ccc2nnc([C@H](C)c3ccc4ncc(-c5cnn(C)c5)cc4c3)n2n1 [Example 4-(R)]
IC50 [1]: 10000 nM | IC50 [2]: 99 nM | IC50 [3]: 144 nM

C/C(=N\O)c1ccc2nnc(Cc3ccc4ncc(N5CCN(C)CC5)cc4c3)n2n1 [Example 14, (E)-1-(3-((3-(4-Methylpiperazin-1-yl)quinolin-6-yl)methyl)-[1,2,4]triazolo[4,3-b]pyridazin-6-yl)ethanone oxime]
IC50 [1]: 25000 nM | IC50 [2]: 2 nM | IC50 [3]: 3 nM

C/C(=N\O)c1ccc2nnc([C@@H](C)c3c(F)cc4ncc(C(C)(C)O)cc4c3F)n2n1 [24-(S)]
IC50 [1]: 8000 nM | IC50 [2]: 80 nM | IC50 [3]: 5 nM

C/C(=N\O)c1ccc2nnc(Cc3ccc4ncc(-c5cnn(C)c5)cc4c3)n2n1 [Example 12, (E)-1-(3-((3-(1-Methyl-1H-pyrazol-4-yl)quinolin-6-yl)methyl)-[1,2,4]triazolo[4,3-b]pyridazin-6-yl)ethanone oxime]
IC50 [1]: 9000 nM | IC50 [2]: 1 nM | IC50 [3]: 0.5 nM

C/C(=N\OCC1CC1)c1ccc2nnc([C@@H](C)c3ccc4ncc(-c5cnn(C)c5)cc4c3)n2n1 [Example 4-(S)]
IC50 [1]: 1200 nM | IC50 [2]: 9 nM | IC50 [3]: 23 nM

CCN(CC)Cc1cnc2ccc(Sc3nnc4ccc(/C(C)=N/O)nn34)cc2c1 [Example 32, (E)-1-(3-((3-((diethylamino)methyl)quinolin-6-yl)sulfanyl)-[1,2,4]triazolo[4,3-b]pyridazin-6-yl)ethanone oxime]
IC50 [1]: > 30000 nM | IC50 [2]: 256 nM | IC50 [3]: 4 nM

C/C(=N\OCCO)c1ccc2nnc(Cc3c(F)cc4ncc(C5CCCCC5)cc4c3F)n2n1 [Example 25, (E)-1-(3-((3-Cyclohexyl-5,7-difluoroquinolin-6-yl)methyl)-[1,2,4]triazolo[4,3-b]pyridazin-6-yl)ethanone O-2-hydroxyethyl oxime]
IC50 [1]: 3000 nM | IC50 [2]: 12 nM | IC50 [3]: 16 nM

C/C(=N\O)c1ccc2nnc(Sc3ccc4ncc(CN5CCOCC5)cc4c3)n2n1 [Example 31, (E)-1-(3-((3-(Morpholin-4-yl-methyl)quinolin-6-yl)sulfanyl)-[1,2,4]triazolo[4,3-b]pyridazin-6-yl)-ethanone oxime]
IC50 [1]: > 30000 nM | IC50 [2]: 23 nM | IC50 [3]: 3 nM

C/C(=N\O)c1ccc2nnc([C@H](C)c3c(F)cc4ncc(C(C)(C)O)cc4c3F)n2n1 [24-(R)]
IC50 [1]: 6000 nM | IC50 [2]: 126 nM | IC50 [3]: 146 nM

C/C(=N\O)c1ccc2nnc(Sc3ccc4ncc(N5CCC(O)CC5)cc4c3)n2n1 [Example 29, (E)-1-(3-((3-(4-Hydroxypiperidin-1-yl)quinolin-6-yl)sulfanyl)-[1,2,4]triazolo[4,3-b]pyridazin-6-yl)-ethanone oxime]
IC50 [1]: > 30000 nM | IC50 [2]: 1 nM | IC50 [3]: 0.7 nM

C/C(=N\O)c1ccc2nnc(Sc3ccc4ncc(NC5CCOCC5)cc4c3)n2n1 [Example 30, (E)-1-(3-((3-((Tetrahydro-2H-pyran-4-yl)amino)quinolin-6-yl)sulfanyl)-[1,2,4]triazolo[4,3-b]pyridazin-6-yl)-ethanone oxime]
IC50 [1]: 17000 nM | IC50 [2]: 1 nM | IC50 [3]: 0.9 nM

CO/N=C(\C)c1ccc2nnc([C@H](C)c3ccc4ncc(-c5cnn(C)c5)cc4c3)n2n1 [Example 3-(R)]
IC50 [1]: 11000 nM | IC50 [2]: 27 nM | IC50 [3]: 26 nM

C/C(=N\O)c1ccc2nnc(Cc3ccc4ncc(N5CCOCC5)cc4c3)n2n1 [Example 13, (E)-1-(3-((3-Morpholin-4-yl-quinolin-6-yl)methyl)-[1,2,4]triazolo[4,3-b]pyridazin-6-yl)ethanone oxime]
IC50 [1]: 14000 nM | IC50 [2]: 10 nM | IC50 [3]: 2 nM

— patent publication US20130324526A1, “[1,2,4] TRIAZOLO [4,3-B] PYRIDAZINE COMPOUNDS AS INHIBITORS OF THE C-MET TYROSINE KINASE” (NOVARTIS AG, priority 2011, published 2013)
